According to PMC6540285, “Evaluation of Protein Kinase Inhibitors with PLK4 Cross-Over Potential in a Pre-Clinical Model of Cancer” (International Journal of Molecular Sciences, 2019):

How the values were obtained:
RT and MB cells = test: Clonogenic colony formation assay; type: cell-based; details: 1µM
Experimental: All cell lines were seeded at 200 cells per well in six-well plates and incubated overnight. After 24 h, the treatment medium was added and changed once a week. Cells were treated with 0.01, 0.05, 0.1, 0.2, 0.5, 1, 5, and 10 µM of PLK4i and 0.1% DMSO as control. After 14 days, the cells were washed twice with 1x PBS, fixed with formalin, and stained with Cresyl violet (ACROS Organics, Pittsburgh, PA, USA). Colonies were counted using the ImageJ software (www.imagej.nih.gov, accessed on April 21, 2017).

ABL1 F317L = ABL1 F317L (Homo sapiens, UniProt P00519, F317L); test: SelectScreen kinase profiling, ZLYTE; type: biochemical
ALK F1174L = ALK F1174L (Homo sapiens, UniProt Q9UM73, F1174L); test: SelectScreen kinase profiling, LanthaScreen binding
AMPK A2/B1/G1 = AMPK A2/B1/G1 (Homo sapiens, UniProt P54646); test: SelectScreen kinase profiling, ZLYTE; type: biochemical; details: AMPK A2/B1/G1, 10 µM
BRSK1 (SAD1) = BRSK1 (SAD1) (Homo sapiens, UniProt Q8TDC3); test: SelectScreen kinase profiling, ZLYTE; type: biochemical
CAMK4 (CaMKIV) = CAMK4 (CaMKIV) (Homo sapiens, UniProt Q16566); test: SelectScreen kinase profiling, ZLYTE; type: biochemical
CDK3/cyclin E1 = CDK3/cyclin E1 (Homo sapiens, UniProt Q00526); test: SelectScreen kinase profiling, LanthaScreen binding; details: CDK3/cyclin E1, 10 µM
CDK5/p25 = CDK5/p25 (Homo sapiens, UniProt Q00535); test: SelectScreen kinase profiling, ZLYTE; type: biochemical; details: CDK5/p25, 10 µM
CDK7/cyclin H/MNAT1 = CDK7/cyclin H/MNAT1 (Homo sapiens, UniProt P50613); test: SelectScreen kinase profiling, Adapta; type: biochemical; details: CDK7/cyclin H/MNAT1, 10 µM
CHUK (IKK alpha) = CHUK (IKK alpha) (Homo sapiens, UniProt O15111); test: SelectScreen kinase profiling, Adapta; type: biochemical
DDR1 = DDR1 (Homo sapiens, UniProt Q08345); test: SelectScreen kinase profiling, LanthaScreen binding; details: DDR1, 10 µM
P450 2J2 = P450 2J2 (Homo sapiens, UniProt P51589)
EPHB3 = EPHB3 (Homo sapiens, UniProt P54753); test: SelectScreen kinase profiling, ZLYTE; type: biochemical; details: EPHB3, 10 µM
ERN1 = ERN1 (Homo sapiens, UniProt O75460); test: SelectScreen kinase profiling, LanthaScreen binding; details: ERN1, 10 µM
FGFR2 = FGFR2 (Homo sapiens, UniProt P21802); test: SelectScreen kinase profiling, ZLYTE; type: biochemical; details: FGFR2, 10 µM
GSK3A (GSK3 alpha) = GSK3A (GSK3 alpha) (Homo sapiens, UniProt P49840); test: SelectScreen kinase profiling, ZLYTE; type: biochemical
LCK = LCK (Homo sapiens, UniProt P06239); test: SelectScreen kinase profiling, ZLYTE; type: biochemical
LTK (TYK1) = LTK (TYK1) (Homo sapiens, UniProt P29376); test: SelectScreen kinase profiling, ZLYTE; type: biochemical
[1] = biological target: MAP2K6 (MKK6) S207E T211E (Homo sapiens, UniProt P52564, S207E/T211E); test: SelectScreen kinase profiling, LanthaScreen binding
MAP3K14 (NIK) = MAP3K14 (NIK) (Homo sapiens, UniProt Q99558); test: as above
MAP3K9 (MLK1) = MAP3K9 (MLK1) (Homo sapiens, UniProt P80192); test: SelectScreen kinase profiling, ZLYTE; type: biochemical
MARK4 = MARK4 (Homo sapiens, UniProt Q96L34); test: SelectScreen kinase profiling, ZLYTE; type: biochemical; details: MARK4, 10 µM
MET (cMet) = MET (cMet) (Homo sapiens, UniProt P08581); test: SelectScreen kinase profiling, ZLYTE; type: biochemical
MKNK2 (MNK2) = MKNK2 (MNK2) (Homo sapiens, UniProt Q9HBH9); test: SelectScreen kinase profiling, LanthaScreen binding
MYO3B (MYO3 beta) = MYO3B (MYO3 beta) (Homo sapiens, UniProt Q8WXR4); test: as above
NLK = NLK (Homo sapiens, UniProt Q9UBE8); test: as above
[2] = biological target: PIK3CA E545K/PIK3R1 (p110 alpha E545K/p85 alpha) (Homo sapiens, UniProt P42336, E545K); test: SelectScreen kinase profiling, Adapta; type: biochemical; details: PIK3CA E545K/PIK3R1, 10 µM
PIP5K1B = PIP5K1B (Homo sapiens, UniProt O14986); test: SelectScreen kinase profiling, Adapta; type: biochemical
PRKCZ (PKC zeta) = PRKCZ (PKC zeta) (Homo sapiens, UniProt Q05513); test: SelectScreen kinase profiling, ZLYTE; type: biochemical
ROS1 = ROS1 (Homo sapiens, UniProt P08922); test: SelectScreen kinase profiling, ZLYTE; type: biochemical; details: ROS1, 10 µM
SGK2 = SGK2 (Homo sapiens, UniProt Q9HBY8); test: SelectScreen kinase profiling, ZLYTE; type: biochemical; details: SGK2, 10 µM
STK32B (YANK2) = STK32B (YANK2) (Homo sapiens, UniProt Q9NY57); test: SelectScreen kinase profiling, LanthaScreen binding
TESK1 = TESK1 (Homo sapiens, UniProt Q15569); test: as above; details: TESK1, 10 µM
Excerpt: Kinase Technology % Inhibition Avg Kinase Technology % Inhibition Avg […]
TESK1 LanthaScreen 37 ZAP70 ZLYTE 24
cleavage (Thermo Fisher Scientific, USA)

TGFBR1 (ALK5) = TGFBR1 (ALK5) (Homo sapiens, UniProt P36897); test: as above
Excerpt: Kinase Technology % Inhibition Avg Kinase Technology % Inhibition Avg

P450 2C19 = P450 2C19 (Homo sapiens, UniProt P33261); test: SelectScreen P450 Vivid biochemical assay; details: 10000nM; substrate EOMCC

BRSK1 (SAD1), sequence (Q8TDC3 whole entry): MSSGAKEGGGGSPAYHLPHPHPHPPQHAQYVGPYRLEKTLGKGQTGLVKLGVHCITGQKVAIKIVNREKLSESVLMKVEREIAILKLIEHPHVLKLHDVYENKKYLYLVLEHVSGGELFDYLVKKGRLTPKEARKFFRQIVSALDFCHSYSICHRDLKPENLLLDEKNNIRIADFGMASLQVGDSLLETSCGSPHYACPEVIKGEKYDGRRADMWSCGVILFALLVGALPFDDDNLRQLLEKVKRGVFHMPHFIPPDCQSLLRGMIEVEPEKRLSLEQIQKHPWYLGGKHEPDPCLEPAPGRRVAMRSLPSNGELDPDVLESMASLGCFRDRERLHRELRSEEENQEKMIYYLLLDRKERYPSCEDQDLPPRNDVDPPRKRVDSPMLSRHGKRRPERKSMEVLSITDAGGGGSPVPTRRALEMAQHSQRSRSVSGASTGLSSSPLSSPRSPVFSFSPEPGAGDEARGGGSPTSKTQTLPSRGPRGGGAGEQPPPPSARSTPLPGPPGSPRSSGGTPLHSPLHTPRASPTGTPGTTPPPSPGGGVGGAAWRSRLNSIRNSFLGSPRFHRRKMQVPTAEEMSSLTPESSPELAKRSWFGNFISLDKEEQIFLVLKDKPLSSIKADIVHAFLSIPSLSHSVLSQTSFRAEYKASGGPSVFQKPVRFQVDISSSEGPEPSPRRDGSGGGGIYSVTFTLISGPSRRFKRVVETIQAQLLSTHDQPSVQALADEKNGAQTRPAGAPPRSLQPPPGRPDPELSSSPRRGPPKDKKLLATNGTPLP
P450 2J2, sequence (P51589 whole entry): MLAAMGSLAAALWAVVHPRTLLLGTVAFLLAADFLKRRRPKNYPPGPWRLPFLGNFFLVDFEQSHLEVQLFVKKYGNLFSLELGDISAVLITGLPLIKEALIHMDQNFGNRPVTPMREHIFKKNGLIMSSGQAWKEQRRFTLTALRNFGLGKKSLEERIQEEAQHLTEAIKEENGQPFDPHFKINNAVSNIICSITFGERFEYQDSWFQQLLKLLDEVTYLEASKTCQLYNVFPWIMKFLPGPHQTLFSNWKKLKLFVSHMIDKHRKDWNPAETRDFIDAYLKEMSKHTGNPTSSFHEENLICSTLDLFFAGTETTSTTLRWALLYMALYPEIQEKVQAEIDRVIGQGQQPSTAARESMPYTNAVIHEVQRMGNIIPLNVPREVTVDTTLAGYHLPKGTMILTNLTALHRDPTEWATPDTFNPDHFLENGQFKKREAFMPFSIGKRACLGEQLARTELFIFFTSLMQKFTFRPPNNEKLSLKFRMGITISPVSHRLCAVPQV
CHUK (IKK alpha), sequence (O15111 whole entry): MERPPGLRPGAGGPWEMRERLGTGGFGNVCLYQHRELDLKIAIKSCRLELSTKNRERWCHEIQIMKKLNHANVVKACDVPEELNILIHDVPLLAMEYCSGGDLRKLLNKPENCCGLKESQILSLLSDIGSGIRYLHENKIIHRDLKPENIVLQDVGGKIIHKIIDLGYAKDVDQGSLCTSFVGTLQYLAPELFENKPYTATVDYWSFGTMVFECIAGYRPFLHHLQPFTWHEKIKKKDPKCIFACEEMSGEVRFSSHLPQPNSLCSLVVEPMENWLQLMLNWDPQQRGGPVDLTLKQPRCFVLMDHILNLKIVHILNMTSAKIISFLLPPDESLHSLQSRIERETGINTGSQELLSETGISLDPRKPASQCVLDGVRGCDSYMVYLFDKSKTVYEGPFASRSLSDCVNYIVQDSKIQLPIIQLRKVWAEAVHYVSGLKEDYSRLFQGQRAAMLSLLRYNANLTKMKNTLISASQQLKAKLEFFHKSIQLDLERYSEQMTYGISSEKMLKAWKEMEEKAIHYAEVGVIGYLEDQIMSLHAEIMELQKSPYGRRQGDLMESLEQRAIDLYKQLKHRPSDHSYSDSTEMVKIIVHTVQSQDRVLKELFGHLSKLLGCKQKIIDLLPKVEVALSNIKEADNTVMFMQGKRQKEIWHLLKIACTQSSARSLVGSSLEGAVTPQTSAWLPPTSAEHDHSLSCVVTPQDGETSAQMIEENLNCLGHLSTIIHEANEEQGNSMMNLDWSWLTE
ALK F1174L, sequence (Q9UM73 19-1620 F1174L): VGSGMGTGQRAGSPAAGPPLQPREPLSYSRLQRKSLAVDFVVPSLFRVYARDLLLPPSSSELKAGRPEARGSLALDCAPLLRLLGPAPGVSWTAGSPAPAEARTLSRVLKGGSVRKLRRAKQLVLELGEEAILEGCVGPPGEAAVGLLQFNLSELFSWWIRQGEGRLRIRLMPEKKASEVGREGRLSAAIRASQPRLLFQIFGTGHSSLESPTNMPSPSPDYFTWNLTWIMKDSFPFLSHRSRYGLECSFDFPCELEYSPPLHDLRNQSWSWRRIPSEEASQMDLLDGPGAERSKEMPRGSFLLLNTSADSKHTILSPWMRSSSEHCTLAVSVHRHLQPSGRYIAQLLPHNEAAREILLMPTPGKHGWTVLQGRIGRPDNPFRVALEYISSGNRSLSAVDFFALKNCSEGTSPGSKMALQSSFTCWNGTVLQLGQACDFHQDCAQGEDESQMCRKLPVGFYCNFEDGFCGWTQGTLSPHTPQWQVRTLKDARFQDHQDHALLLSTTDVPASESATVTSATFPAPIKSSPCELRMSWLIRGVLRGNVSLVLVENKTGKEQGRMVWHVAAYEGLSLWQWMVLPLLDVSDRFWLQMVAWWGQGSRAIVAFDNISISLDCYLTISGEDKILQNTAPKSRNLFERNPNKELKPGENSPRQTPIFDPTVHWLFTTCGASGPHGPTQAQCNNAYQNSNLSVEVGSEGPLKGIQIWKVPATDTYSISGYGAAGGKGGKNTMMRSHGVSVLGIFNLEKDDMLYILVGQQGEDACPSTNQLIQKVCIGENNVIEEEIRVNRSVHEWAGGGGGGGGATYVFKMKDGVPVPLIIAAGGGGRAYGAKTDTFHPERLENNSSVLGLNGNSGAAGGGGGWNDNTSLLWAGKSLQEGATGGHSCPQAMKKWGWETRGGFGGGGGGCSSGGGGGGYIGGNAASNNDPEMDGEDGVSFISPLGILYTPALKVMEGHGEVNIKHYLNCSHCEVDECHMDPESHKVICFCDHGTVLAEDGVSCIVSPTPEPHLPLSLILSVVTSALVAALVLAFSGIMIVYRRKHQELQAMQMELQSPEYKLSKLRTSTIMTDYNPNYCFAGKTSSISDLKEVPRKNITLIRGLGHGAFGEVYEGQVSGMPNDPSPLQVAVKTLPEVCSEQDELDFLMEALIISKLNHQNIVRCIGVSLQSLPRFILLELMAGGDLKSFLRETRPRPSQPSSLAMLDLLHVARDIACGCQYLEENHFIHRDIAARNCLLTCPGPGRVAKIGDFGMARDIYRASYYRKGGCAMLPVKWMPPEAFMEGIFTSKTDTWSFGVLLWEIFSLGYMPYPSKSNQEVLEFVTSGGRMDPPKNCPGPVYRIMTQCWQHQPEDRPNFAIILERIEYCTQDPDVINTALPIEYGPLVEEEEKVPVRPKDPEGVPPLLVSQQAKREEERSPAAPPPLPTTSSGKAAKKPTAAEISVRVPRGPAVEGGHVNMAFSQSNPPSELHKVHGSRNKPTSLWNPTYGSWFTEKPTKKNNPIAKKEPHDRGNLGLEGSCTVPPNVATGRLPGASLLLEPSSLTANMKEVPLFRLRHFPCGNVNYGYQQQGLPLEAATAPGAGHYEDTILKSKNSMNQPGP
CAMK4 (CaMKIV), sequence (Q16566 whole entry): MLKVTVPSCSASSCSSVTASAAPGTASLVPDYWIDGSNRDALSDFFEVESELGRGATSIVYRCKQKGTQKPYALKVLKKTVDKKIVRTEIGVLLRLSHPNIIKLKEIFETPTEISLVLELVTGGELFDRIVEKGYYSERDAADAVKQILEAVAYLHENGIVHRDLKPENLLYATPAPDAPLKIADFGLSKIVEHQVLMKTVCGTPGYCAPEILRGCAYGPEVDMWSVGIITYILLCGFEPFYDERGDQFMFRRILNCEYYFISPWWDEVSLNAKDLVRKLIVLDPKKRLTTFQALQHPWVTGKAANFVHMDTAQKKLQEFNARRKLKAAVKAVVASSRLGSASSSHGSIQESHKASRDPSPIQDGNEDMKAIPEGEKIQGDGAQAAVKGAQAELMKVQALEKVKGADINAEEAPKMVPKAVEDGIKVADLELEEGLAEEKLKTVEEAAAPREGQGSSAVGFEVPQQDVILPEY
FGFR2, sequence (P21802 22-821): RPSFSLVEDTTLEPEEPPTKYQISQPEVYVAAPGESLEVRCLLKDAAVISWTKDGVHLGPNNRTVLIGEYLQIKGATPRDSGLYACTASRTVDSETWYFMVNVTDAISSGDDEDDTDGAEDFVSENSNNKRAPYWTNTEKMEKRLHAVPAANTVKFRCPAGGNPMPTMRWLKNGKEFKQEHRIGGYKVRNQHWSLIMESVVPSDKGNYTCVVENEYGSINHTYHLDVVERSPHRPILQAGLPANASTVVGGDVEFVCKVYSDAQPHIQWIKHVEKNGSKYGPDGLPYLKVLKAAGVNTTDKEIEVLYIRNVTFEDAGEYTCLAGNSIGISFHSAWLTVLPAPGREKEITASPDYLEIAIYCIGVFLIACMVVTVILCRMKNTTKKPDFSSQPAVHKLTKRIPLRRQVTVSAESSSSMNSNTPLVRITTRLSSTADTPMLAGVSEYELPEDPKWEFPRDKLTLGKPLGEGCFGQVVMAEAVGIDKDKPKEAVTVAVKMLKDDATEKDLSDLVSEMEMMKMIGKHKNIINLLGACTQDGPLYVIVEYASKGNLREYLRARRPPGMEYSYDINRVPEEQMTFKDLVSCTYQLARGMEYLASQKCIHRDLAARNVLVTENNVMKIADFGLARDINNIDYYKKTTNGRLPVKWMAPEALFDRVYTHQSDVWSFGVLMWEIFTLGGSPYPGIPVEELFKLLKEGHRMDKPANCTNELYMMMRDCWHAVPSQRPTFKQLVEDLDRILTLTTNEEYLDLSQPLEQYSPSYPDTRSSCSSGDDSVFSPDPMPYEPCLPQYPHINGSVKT

SMILES: O=C(c1ccc(/C=C/c2n[nH]c3ccccc23)cc1)N1CCNCC1 [KW-2449]
- colony formation (RT and MB cells): complete inhibition of colony formation in all cell lines except the MB cell line DAOY
- inhibition at 10 µM (ABL1 F317L): 98%
- inhibition at 10 µM (ALK F1174L): 56%
- inhibition at 10 µM (AMPK A2/B1/G1): 99%
- inhibition at 10 µM (BRSK1 (SAD1)): 99%
- inhibition at 10 µM (CAMK4 (CaMKIV)): 52%
- inhibition at 10 µM (CDK3/cyclin E1): 48%
- inhibition at 10 µM (CDK5/p25): 97%
- inhibition at 10 µM (CDK7/cyclin H/MNAT1): 98%
- inhibition at 10 µM (CHUK (IKK alpha)): 96%
- inhibition at 10 µM (DDR1): 55%
- IC50 (P450 2J2): 249 nM
- inhibition at 10 µM (EPHB3): 21%
- inhibition at 10 µM (ERN1): 32%
- inhibition at 10 µM (FGFR2): 97%
- inhibition at 10 µM (GSK3A (GSK3 alpha)): 63%
- inhibition at 10 µM (LCK): 97%
- inhibition at 10 µM (LTK (TYK1)): 90%
- inhibition at 10 µM [1]: 82%
- inhibition at 10 µM (MAP3K14 (NIK)): 90%
- inhibition at 10 µM (MAP3K9 (MLK1)): 102%
- inhibition at 10 µM (MARK4): 101%
- inhibition at 10 µM (MET (cMet)): 95%
- inhibition at 10 µM (MKNK2 (MNK2)): 68%
- inhibition at 10 µM (MYO3B (MYO3 beta)): 88%
- inhibition at 10 µM (NLK): -2%
- inhibition at 10 µM [2]: -3%
- inhibition at 10 µM (PIP5K1B): 32%
- inhibition at 10 µM (PRKCZ (PKC zeta)): 9%
- inhibition at 10 µM (ROS1): 98%
- inhibition at 10 µM (SGK2): 95%
- inhibition at 10 µM (STK32B (YANK2)): 61%
- inhibition at 10 µM (TESK1): 37%
- inhibition at 10 µM (TGFBR1 (ALK5)): 85%
- % Inhibition 2C19 EOMCC (P450 2C19): 51%
